The record followed here is ChEMBL document CHEMBL1201862, “PubChem BioAssay data set” (2004).

The structures appear in SMILES notation.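 A five-concentration, 48-hour dose response in 96-well plates underlies each endpoint, interpolated linearly between surrounding concentrations. GI50: concentration for 50% inhibition of growth.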 Activity calls are given as the source filed them. No stated cut-off is given here; in the data, active = GI50 up to about 1.1 µM and inactive = higher.

Holding throughout (assay): NCI anticancer screen, dose series, 48 h
For experiment [1], the system named is OVCAR-5.
For experiment [2], the system named is HL-60.
The subject of experiment [3] is U-251.
In experiment [4] the test system is MCF7.
Experiment [5] has as its system 786-0.
The test system of experiment [6] is NCI-H23.
Experiment [7] relates to SF-268.
For experiment [8], the system named is SF-295.
For experiment [9], the system named is PC-3.
In experiment [10] the test system is SK-OV-3.
Experiment [11] has as its system T47D.
Experiment [12] concerns MDA-MB-231.
For experiment [13], the system named is NCI-H460.
In experiment [14] the test system is A549.
Experiment [15] has as its system SK-MEL-2.
Experiment [16] concerns COLO 205.
Experiment [17] relates to MDA-MB-435.
In experiment [18] the test system is UACC-62.
For experiment [19], the system named is NCI/ADR-RES.
Experiment [20] concerns HT-29.

Turning to `Cc1ccn2c(CCc3nnc4cc(C)ccn34)nnc2c1`, the GI50 was > 100 µM (inactive) in experiment [1]; 0.129 µM (active) in experiment [2]; > 100 µM (inactive) in experiment [3]; > 100 µM (inactive) in experiment [4]; > 100 µM (inactive) in experiment [5]; > 100 µM (inactive) in experiment [6]. Also, the GI50 in experiment [7], in [8], in [9], in experiment [10], in experiment [11] and in experiment [12] was > 100 µM (inactive) throughout. Also, the GI50 in [13], in experiment [14], in [15], in experiment [16], in [17] and in [18] was > 100 µM (inactive) each time. Besides, the GI50 in [19] and in experiment [20] was > 100 µM (inactive) each time.
On to `C=C(C)C1CC2(C)C(C)CC(O)CC2C(OC(=O)C=C(C)C)C1O` (stereo not given), for which the GI50 in [1] was 31.3 µM (inactive); in experiment [2], 23 µM (inactive); in experiment [3] it was 40 µM (inactive); in [4], 29.6 µM (inactive); in experiment [5], > 100 µM (inactive); in [6], 30.3 µM (inactive). Moreover, the GI50 was 23.7 µM (inactive) in experiment [7]; 23 µM (inactive) in [8]; 37.6 µM (inactive) in [9]; 58.6 µM (inactive) in [10]; 31.8 µM (inactive) in experiment [11]; 24.5 µM (inactive) in experiment [12]. Also, the GI50 is 22.8 µM (inactive) in experiment [13]; 29.4 µM (inactive) in experiment [14]; 61.5 µM (inactive) in experiment [15]; 16.3 µM (inactive) in [16]; 38.1 µM (inactive) in experiment [17]; 71.9 µM (inactive) in experiment [18]. Further, the results for the GI50 in experiment [19] and in [20] were 30.5 µM (inactive) and 24.4 µM (inactive), respectively.
Turning to `FC(F)(F)C1(c2ccccc2)SCc2nc3ccccc3n21` (stereo not given), the GI50 in experiment [1] was > 100 µM (inactive); in experiment [2], 24.2 µM (inactive); in [3], > 100 µM (inactive); in experiment [4], > 100 µM (inactive); in [5], > 100 µM (inactive); in experiment [6], 71.9 µM (inactive). In addition, the GI50 in [7] was > 100 µM (inactive); in experiment [8] it was > 100 µM (inactive); in experiment [9] it was 83.6 µM (inactive); in experiment [10], > 100 µM (inactive); in experiment [11], 62.8 µM (inactive); in experiment [12] it was > 100 µM (inactive). Besides, the GI50 in experiment [13] is 80.9 µM (inactive); in experiment [14], > 100 µM (inactive); in [15] it was > 100 µM (inactive); in [16] it was > 100 µM (inactive); in experiment [17], 40.6 µM (inactive); in experiment [18] it was > 100 µM (inactive). Besides, the GI50 in experiment [19] was > 100 µM (inactive); in [20], 62.5 µM (inactive).
As for `Cc1cccc2c1CC(C1OC(=O)c3ccccc31)C2=O` (stereo not given), the GI50 in experiment [1], in experiment [2], in [3], in experiment [4], in [5] and in experiment [6] was > 100 µM (inactive) each time. Besides, the GI50 in experiment [7], in experiment [8], in experiment [9], in [10], in [11] and in [12] was > 100 µM (inactive) in each case. Also, the GI50 in [13], in experiment [14], in experiment [15], in [16], in experiment [17] and in [18] was > 100 µM (inactive) each time. Also, the GI50 in experiment [19] was > 100 µM (inactive); in experiment [20], 48.5 µM (inactive).
In the case of `COc1ccc(C(=O)CC(c2ccc(OC)c(OC)c2)c2c(O)oc3ccccc3c2=O)cc1OC` (stereo not given), the GI50 in experiment [1], in [2], in experiment [3], in [4], in experiment [5] and in [6] was > 100 µM (inactive) each time. The GI50 in [7], in [8], in experiment [9], in experiment [10], in [11] and in experiment [12] was > 100 µM (inactive) each time. The GI50 in experiment [13], in [14], in [15], in [16], in [17] and in experiment [18] was > 100 µM (inactive) throughout. Further, the GI50 in experiment [19] and in [20] was > 100 µM (inactive) each time.
On to `CC1NCCC(CC(=O)O)C1CC(=O)O` (stereo not given), for which the GI50 in experiment [1], in [2], in experiment [3], in experiment [4], in experiment [5] and in experiment [6] was > 100 µM (inactive) each time. Moreover, the GI50 in experiment [7], in experiment [8], in [9], in experiment [10], in [11] and in experiment [12] was > 100 µM (inactive) in each case. For the same compound, the GI50 in [13], in [14], in experiment [15], in experiment [16], in experiment [17] and in [18] was > 100 µM (inactive) throughout. Moreover, the GI50 in experiment [19] and in experiment [20] was > 100 µM (inactive) each time.
On to `C#CC(O)/C=C/C(O)CCCC(O)CC#CC(O)C#CC(O)CCCC(O)/C=C/CCCC(=O)CCCCCCCCCCCCCCCC(O)C(O)C#CC(=O)O` (stereo not given), for which the GI50 in [1] is > 50 µM (inactive); in [2] it was 13.2 µM (inactive); in experiment [3], > 50 µM (inactive); in experiment [4], > 50 µM (inactive); in [5], > 50 µM (inactive); in [6] it was > 50 µM (inactive). Also, the GI50 in experiment [7], in [8], in experiment [9], in [10], in experiment [11] and in [12] was > 50 µM (inactive) throughout. The GI50 in [13], in experiment [14], in experiment [15], in experiment [16], in [17] and in experiment [18] was > 50 µM (inactive) throughout. Also, the GI50 is > 50 µM (inactive) in [19] and 28.1 µM (inactive) in [20].
For the compound `CCN(CC)CCn1c(=O)c2ccccc2n2c3c(=O)n(C)c(=O)n(C)c3nc12`, the GI50 is 2.53 µM (inactive) in [1]; 0.255 µM (active) in experiment [2]; 1.43 µM (inactive) in experiment [3]; 0.337 µM (active) in experiment [4]; 1.32 µM (inactive) in experiment [5]; 2.07 µM (inactive) in experiment [6]. In addition, the GI50 in experiment [7] is 2.07 µM (inactive); in experiment [8], 1.24 µM (inactive); in experiment [9] it was 2.38 µM (inactive); in experiment [10], 1.37 µM (inactive); in experiment [11] it was 2.15 µM (inactive); in experiment [12] it was 5.14 µM (inactive). The GI50 in experiment [13] was 0.148 µM (active); in experiment [14], 0.321 µM (active); in experiment [15], 2.82 µM (inactive); in experiment [16] it was 1.55 µM (inactive); in experiment [17] it was 4.71 µM (inactive); in experiment [18] it was 0.762 µM (active). Further, the figures for the GI50 in experiment [19] and in experiment [20] were 3.33 µM (inactive) and 2.2 µM (inactive), respectively.
With `C/C=C\C(C)=C/C(C)C(=O)CC(O)CC1CC(=O)NC(=O)C1` (stereo not given), the GI50 was 4.86 µM (inactive) in experiment [1]; 40.2 µM (inactive) in experiment [2]; 31.2 µM (inactive) in experiment [3]; 21 µM (inactive) in [4]; 13.5 µM (inactive) in [5]; 23.7 µM (inactive) in [6]. Besides, the GI50 was 10.5 µM (inactive) in experiment [7]; 5.79 µM (inactive) in experiment [8]; 9.31 µM (inactive) in experiment [9]; 5.77 µM (inactive) in [10]; 28.1 µM (inactive) in [11]; > 42.3 µM (inactive) in [12]. For the same compound, the GI50 in experiment [13] was 14.8 µM (inactive); in experiment [14], 21.5 µM (inactive); in experiment [15], 13.6 µM (inactive); in experiment [16], 17.1 µM (inactive); in experiment [17], 28.4 µM (inactive); in experiment [18] it was 9.73 µM (inactive). The figures for the GI50 in experiment [19] and in experiment [20] were 4.71 µM (inactive) and 24 µM (inactive), respectively.
Turning to `CC1=C(C)C2(C#N)C(=O)N3C(=NC(c4ccccc4)NC3c3ccccc3)C2(C#N)C(c2ccccc2)N1` (stereo not given), the GI50 in experiment [1], in experiment [2], in experiment [3], in experiment [4], in experiment [5] and in experiment [6] was > 100 µM (inactive) in each case. Further, the GI50 in experiment [7], in experiment [8], in experiment [9], in experiment [10], in [11] and in experiment [12] was > 100 µM (inactive) each time. The GI50 in experiment [13], in experiment [14], in [15], in [16], in experiment [17] and in experiment [18] was > 100 µM (inactive) in each case. The GI50 in [19] and in experiment [20] was > 100 µM (inactive) in each case.
